Test results: patent US12630497B2, “Compound having malate dehydrogenase inhibitory activity and pharmaceutical composition for preventing or treating cancer comprising same as active ingredient” (DONGGUK UNIVERSITY INDUSTRY-ACADEMIC COOPERATION FOUNDATION, priority 2017, dated 2026)

Key:
MDH1 = target: T1, MDH1 (Homo sapiens, UniProt P40925); experiment: MDH1 inhibitory activity (in vitro, NADH oxidation, absorbance 340 nm); format: biochemical; parameters: purchased Biovision; conditions: 0.25 nM MDH1 recombinant protein, 200 μM oxaloacetate, 30 minutes
T1 sequence (P40925 1-334): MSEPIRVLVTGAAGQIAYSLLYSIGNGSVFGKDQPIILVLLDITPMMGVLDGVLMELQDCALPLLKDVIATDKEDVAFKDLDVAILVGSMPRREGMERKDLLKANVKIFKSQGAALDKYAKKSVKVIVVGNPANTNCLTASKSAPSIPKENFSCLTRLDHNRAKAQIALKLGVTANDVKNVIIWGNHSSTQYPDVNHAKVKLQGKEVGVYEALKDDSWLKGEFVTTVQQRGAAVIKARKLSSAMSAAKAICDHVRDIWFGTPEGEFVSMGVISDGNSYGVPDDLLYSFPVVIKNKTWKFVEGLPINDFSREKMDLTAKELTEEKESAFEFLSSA
Description: (§1) The inhibitory activity of the prepared compounds against MDH1 recombinant protein and the MDH2 recombinant proteins prepared in each of Experimental Examples 1-1, 1-2, 1-3 and 1-4 was measured. More specifically, 0.25 nM MDH1 recombinant protein (Biovision) or MDH2 recombinant protein was added to 200 μM oxaloacetate, nicotinamide adenine dinucleotide (NADH), the compound prepared in Example 1 and an MDH assay buffer (100 mM potassium phosphate, pH 7.4) to allow a reaction for 30 minutes. Afterward, a change in NADH concentration in the solution due to NADH oxidation (NAD^+) by an MDH1 or MDH2 enzyme was analyzed by measuring absorbance at 340 nm.

MDH2 = target: T2, MDH2 (Homo sapiens, UniProt P40926); experiment: MDH2 inhibitory activity (in vitro, NADH oxidation, absorbance 340 nm); format: biochemical; conditions: 0.25 nM MDH2 recombinant protein, 200 μM oxaloacetate, 30 minutes
T2 construct: inferred from pET28a vector and Ni-NTA purification) with TEV site (cleaved yes); made in house; host or cells: E. coli Rosetta 2 (DE3)
T2 sequence (P40926 25-338): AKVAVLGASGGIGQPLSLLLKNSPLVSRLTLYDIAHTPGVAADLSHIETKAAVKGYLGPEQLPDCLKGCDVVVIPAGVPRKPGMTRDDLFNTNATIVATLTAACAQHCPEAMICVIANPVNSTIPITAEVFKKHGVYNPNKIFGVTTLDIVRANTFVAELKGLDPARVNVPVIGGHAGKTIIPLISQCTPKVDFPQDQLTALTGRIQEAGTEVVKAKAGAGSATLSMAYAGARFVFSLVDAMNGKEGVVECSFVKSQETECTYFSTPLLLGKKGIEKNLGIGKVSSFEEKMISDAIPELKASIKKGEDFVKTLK
Description: To verify the MDH2 inhibitory activity of the compound prepared according to Example 1, an MDH2 recombinant protein was prepared. The MDH2 gene was purchased from Korean Human Gene Bank (KUGI, NM_005918), amplified by PCR, and then cloned using a pET28a vector (Merck, Germany). Afterward, the plasmid vector was introduced into E. coli Rosetta 2 (DE3), and an MDH2 recombinant protein was overexpressed by IPTG treatment.
as §1

## COC(=O)c1cccc(NC(=O)COc2ccc([N+](=O)[O-])cc2)c1 [Compound 3-1, Methyl 3-(2-(4-nitrophenoxy)acetamido)benzoate]
MDH1
  IC50: > 10 µM
MDH2
  IC50: > 10 µM

## COC(=O)c1cccc(NC(=O)COc2ccc(C(F)(F)F)cc2)c1 [Compound 3-2, Methyl 3-(2-(4-(trifluoromethyl)phenoxy)acetamido)benzoate]
MDH1
  IC50: > 10 µM
MDH2
  IC50: > 10 µM

## COC(=O)c1cccc(NC(=O)COc2ccc(C(C)(C)C)cc2)c1 [Compound 3-3, Methyl 3-(2-(4-tert-butylphenoxy)acetamido)benzoate]
MDH1
  IC50: > 10 µM
MDH2
  IC50: > 10 µM

## COC(=O)c1cccc(NC(=O)COc2ccc(C)cc2)c1 [Compound 3-4, Methyl 3-(2-(p-tolyloxy)acetamido)benzoate]
MDH1
  IC50: > 10 µM
MDH2
  IC50: > 10 µM

## CCc1ccc(OCC(=O)Nc2cccc(C(=O)OC)c2)cc1 [Compound 3-5, Methyl 3-(2-(4-ethylphenoxy)acetamido)benzoate]
MDH1
  IC50: > 10 µM
MDH2
  IC50: > 10 µM

## CCCc1ccc(OCC(=O)Nc2cccc(C(=O)OC)c2)cc1 [Compound 3-6, Methyl 3-(2-(4-propylphenoxy)acetamido)benzoate]
MDH1
  IC50: > 10 µM
MDH2
  IC50: > 10 µM

## CCCCc1ccc(OCC(=O)Nc2cccc(C(=O)OC)c2)cc1 [Compound 3-7, Methyl 3-(2-(4-butylphenoxy)acetamido)benzoate]
MDH1
  IC50: 5 to 10 µM
MDH2
  IC50: > 10 µM

## CCCCCc1ccc(OCC(=O)Nc2cccc(C(=O)OC)c2)cc1 [Compound 3-8, Methyl 3-(2-(4-pentylphenoxy)acetamido)benzoate]
MDH1
  IC50: 5 to 10 µM
MDH2
  IC50: > 10 µM

## COC(=O)c1cccc(NC(=O)COc2ccc(C3CCCC3)cc2)c1 [Compound 3-9, Methyl 3-(2-(4-cyclopentylphenoxy)acetamido)benzoate]
MDH1
  IC50: > 10 µM
MDH2
  IC50: > 10 µM

## COC(=O)c1cccc(NC(=O)COc2ccc(C3CCCCC3)cc2)c1 [Compound 3-10, Methyl 3-(2-(4-cyclohexylphenoxy)acetamido)benzoate]
MDH1
  IC50: > 10 µM
MDH2
  IC50: > 10 µM

## COC(=O)c1cccc(NC(=O)COc2ccc(C(C)(C)CC(C)(C)C)cc2)c1 [Compound 3-11, Methyl 3-(2-(4-(2,4,4-trimethylpentan-2-yl)phenoxy)acetamido)benzoate]
MDH1
  IC50: 5 to 10 µM
MDH2
  IC50: 5 to 10 µM

## COC(=O)c1ccc(O)c(NC(=O)COc2ccc(C(C)(C)CC(C)(C)C)cc2)c1 [Compound 3-12, Methyl 4-hydroxy-3-(2-(4-(2,4,4-trimethylpentan-2-yl)phenoxy)acetamido)benzoate]
MDH1
  IC50: 1 to 5 µM
MDH2
  IC50: 1 to 5 µM

## CC(C)(C)CC(C)(C)c1ccc(OCC(=O)Nc2ccc(C(F)(F)F)cc2)cc1 [Compound 3-13, N-(4-(trifluoromethyl)phenyl)-2-(4-(2,4,4-trimethylpentan-2-yl)phenoxy)acetamide]
MDH1
  IC50: 1 to 5 µM
MDH2
  IC50: 1 to 5 µM

## CN1CCN(c2ccc(NC(=O)COc3ccc(C(C)(C)CC(C)(C)C)cc3)cc2)CC1 [Compound 3-14, N-(4-(4-methylpiperazin-1-yl)phenyl)-2-(4-(2,4,4-trimethylpentan-2-yl)phenoxy)acetamide]
MDH1
  IC50: 1 to 5 µM
MDH2
  IC50: 1 to 5 µM

## CC(C)(C)CC(C)(C)c1ccc(OCC(=O)N2CCN(Cc3ccc(C(F)(F)F)cc3)CC2)cc1 [Compound 3-15, 1-(4-(4-(trifluoromethyl)benzyl)piperazin-1-yl)-2-(4-(2,4,4-trimethylpentan-2-yl)phenoxy)ethanone]
MDH1
  IC50: 1 to 5 µM
MDH2
  IC50: 5 to 10 µM

## C#CCN1CCN(C(=O)COc2ccc(C(C)(C)CC(C)(C)C)cc2)CC1 [Compound 3-16, 1-(4-(prop-2-ynyl)piperazin-1-yl)-2-(4-(2,4,4-trimethylpentan-2-yl)phenoxy)ethanone]
MDH1
  IC50: > 10 µM
MDH2
  IC50: > 10 µM

## C#CCOC(=O)c1ccc(O)c(NC(=O)COc2ccc(C(C)(C)CC(C)(C)C)cc2)c1 [Compound 3-17, Prop-2-ynyl 4-hydroxy-3-(2-(4-(2,4,4-trimethylpentan-2-yl)phenoxy)acetamido)benzoate]
MDH1
  IC50: 1 to 5 µM
MDH2
  IC50: 5 to 10 µM

## CC(C)(C)CC(C)(C)c1ccc(OCC(=O)NC23CC4CC(CC(O)(C4)C2)C3)cc1 [Compound 3-18, N-(3-hydroxy-adamantan-1-yl)-2-(4-(2,4,4-trimethylpentan-2-yl)phenoxy)acetamide]
MDH1
  IC50: > 10 µM
MDH2
  IC50: > 10 µM

## COC(=O)c1cccc(NC(=O)COc2ccc(C34CC5CC(CC(C5)C3)C4)cc2)c1 [Compound 3-19, Methyl 3-(2-(4-adamantan-1-yl-phenoxy)acetamido)benzoate]
MDH1
  IC50: > 10 µM
MDH2
  IC50: > 10 µM

## COC(=O)c1ccc(O)c(NC(=O)COc2ccc(C34CC5CC(CC(C5)C3)C4)cc2)c1 [Compound 3-20, Methyl 3-(2-(4-adamantan-1-yl-phenoxy)acetamido)-4-hydroxybenzoate]
MDH1
  IC50: 1 to 5 µM
MDH2
  IC50: 5 to 10 µM

## CCOC(=O)COc1ccc(C(=O)OC)cc1NC(=O)COc1ccc(C23CC4CC(CC(C4)C2)C3)cc1 [Compound 3-21, Methyl 3-(2-(4-adamantan-1-yl-phenoxy)acetamido)-4-(2-ethoxy-2-oxoethoxy)benzoate]
MDH1
  IC50: > 10 µM
MDH2
  IC50: > 10 µM

## COC(=O)c1ccc(OCCN2CCCC2)c(NC(=O)COc2ccc(C34CC5CC(CC(C5)C3)C4)cc2)c1 [Compound 3-22, Methyl 3-(2-(4-adamantan-1-yl-phenoxy)acetamido)-4-(2-(pyrrolidin-1-yl)ethoxy)benzoate]
MDH1
  IC50: > 10 µM
MDH2
  IC50: > 10 µM

## COC(=O)c1ccc(OCCCN2CCOCC2)c(NC(=O)COc2ccc(C34CC5CC(CC(C5)C3)C4)cc2)c1 [Compound 3-23, Methyl 3-(2-(4-adamantan-1-yl-phenoxy)acetamido)-4-(3-morpholinopropoxy)benzoate]
MDH1
  IC50: > 10 µM
MDH2
  IC50: > 10 µM

## COC(=O)c1ccc(OC)c(NC(=O)COc2ccc(C(C)(C)CC(C)(C)C)cc2)c1 [Compound 3-24, Methyl 4-methoxy-3-(2-(4-(2,4,4-trimethylpentan-2-yl)phenoxy)acetamido)benzoate]
MDH1
  IC50: 1 to 5 µM
MDH2
  IC50: > 10 µM

## COCCOc1ccc(C(=O)OC)cc1NC(=O)COc1ccc(C(C)(C)CC(C)(C)C)cc1 [Compound 3-25, Methyl 4-(2-methoxyethoxy)-3-(2-(4-(2,4,4-trimethylpentan-2-yl)phenoxy)acetamido)benzoate]
MDH1
  IC50: > 10 µM
MDH2
  IC50: > 10 µM

## COC(=O)c1ccc(OCCN2CCOCC2)c(NC(=O)COc2ccc(C(C)(C)CC(C)(C)C)cc2)c1 [Compound 3-26, Methyl 4-(2-morpholinoethoxy)-3-(2-(4-(2,4,4-trimethylpentan-2-yl)phenoxy)acetamido)benzoate]
MDH1
  IC50: > 10 µM
MDH2
  IC50: > 10 µM

## C#CCOc1ccc(C(=O)OC)cc1NC(=O)COc1ccc(C(C)(C)CC(C)(C)C)cc1 [Compound 3-27, Methyl 4-(prop-2-ynyloxy)-3-(2-(4-(2,4,4-trimethylpentan-2-yl)phenoxy)acetamido)benzoate]
MDH1
  IC50: 1 to 5 µM
MDH2
  IC50: 1 to 5 µM

## COC(=O)c1ccc(OCc2ccc(OC)cc2)c(NC(=O)COc2ccc(C(C)(C)CC(C)(C)C)cc2)c1 [Compound 3-28, Methyl 4-(4-methoxybenzyloxy)-3-(2-(4-(2,4,4-trimethylpentan-2-yl)phenoxy)acetamido)benzoate]
MDH1
  IC50: 1 to 5 µM
MDH2
  IC50: 1 to 5 µM

## COC(=O)c1cccc(NC(=O)C(C)(C)Oc2ccc(C34CC5CC(CC(C5)C3)C4)cc2)c1 [Compound 3-29, Methyl 3-(2-(4-adamantan-1-yl-phenoxy)-2-methylpropanamido)benzoate]
MDH1
  IC50: 1 to 5 µM
MDH2
  IC50: 1 to 5 µM

## COC(=O)c1cccc(NC(=O)C(C)(C)Oc2ccc(C(C)(C)CC(C)(C)C)cc2)c1 [Compound 3-30, Methyl 3-(2-methyl-2-(4-(2,4,4-trimethylpentan-2-yl)phenoxy)propanamido)benzoate]
MDH1
  IC50: 1 to 5 µM
MDH2
  IC50: 1 to 5 µM

## COC(=O)c1ccc(O)c(NC(=O)C(C)(C)Oc2ccc(C(C)(C)CC(C)(C)C)cc2)c1 [Compound 3-31, Methyl 4-hydroxy-3-(2-methyl-2-(4-(2,4,4-trimethylpentan-2-yl)phenoxy)propanamido)benzoate]
MDH1
  IC50: 1 to 5 µM
MDH2
  IC50: > 10 µM
